Assay [1] relates to B16 melanoma cells. The assay is described as follows: Effect on experimental model of pulmonary metastasis of B16 melanoma cells. It counts as in vivo, mouse (C57BL/6 mice). To be noted: for No. of colonies in lungs, Mean: control 86.7; for No. of colonies in lungs, individual mice: 4 days. How it is done: B16 mouse melanoma cells [Koren, S. and Fleischmann, W. R., J. Interferon Research, i, 473-482 (198)], 2×10^6 cells, were suspended in Eagle's MEM medium (Nissui Pharmaceutical Co., Ltd.) supplemented with 10% FBS (Gibco) to which 3 or 10 μg/ml of Compound 1 was previously added or not added. The suspension was cultured in a 75-cm^2 flask (Corning) in an incubator (National Appliance Model 15300) at 37° C. under 5% carbon dioxide for 4 days. Then, the cells were washed with Dulbecco's PBS solution (Nissui pharmaceutical Co., Ltd.), and 0.05% trypsin (Flow Laboratories) was added to detach the cells from the flask. The cells were washed centrifugally (Hitachi 05PR-22, 1200 rpm, 5 minutes) twice and after addition of 0.2% trypan blue (Wako Pure Chemical Industries Ltd.), viable cells were counted using a hemocytometer (No. J7796, Kayagaki Works) and the cells were diluted with Hank's solution (Flow Laboratories)to a concentration of 5×10^6 cells/ml.
The cells obtained as above were transplanted, in a population of 3×10^5 cells each, into groups of 7 C57BL/6 mice (7 weeks old, female, purchased from Charles River Japan, Inc.) through the tail vein. Twelve days later, the mice were killed by cervical dislocation and the number of colonies metastatized to the lungs was determined.

Assay [2] deals with Human transformed normal T cells (MT-4), HIV-infected. Nature of the assay: Antiretrovirus activity test: viable HIV-infected MT-4 cells. Format: cell-based. The conditions noted are these: for Number of HIV-infected cells: 3 days, control 105. How it is done: (§1) Human transformed normal T cells (MT-4) [Nagumo, T. and Hoshino, H., Jpn. J. Cancer Res. 79, 9-11 (1988)] were used to prepare a suspension of 2×10^5 cells/ml in RPMI-1640 medium (Gibco) supplemented 10% FCS (Gibco).
(§2) Compound 1 was dissolved in hydrochloric acid, diluted in the same medium as above, neutralized with 2N NaOH and adjusted to concentrations of 1 μg/ml, 10 μg/ml, 30 μg/ml and 100 μg/ml.
(§3) The cells prepared in (a) above and the test compound (final concentration: 1 μg/ml, 10 μg/ml, 30 μg/ml or 100 μg/ml) prepared in (b) above were placed in the wells of a 12-well culture plate (Costar). Then, 50 μl/well of HIV suspension was added to infect the cells in each well, followed by 3-day incubation at 37° C. in a 5% carbon dioxide incubator. As a control, the medium without addition of the test compound was used. After completion of incubation, the cell suspension in each well was taken and viable cells were counted.

Assay [3] has as its system HL-60 cells. Nature of the assay: Differentiation inducing test: reactivity of HL-60 cells with monoclonal antibody FH-6 (sialyl Le^X). Format: cell-based, human. To be noted: 2 hours; for Positive rate (%), FH-6: control 95. How it is done:
The monoclonal antibody FH-6 capable of recognizing sialyl Le^X was fluoresein (FITC)-labeled, and the reactivity between the active ingredient compound of the present invention and FH-6 was examined by flow cytometry as follows.
The test compound solutions prepared as described above under (3) were added to HL-60 cells prepared as described above under (1) to a final concentration of 1.0 μg/ml or 10 μg/ml. Cultivation was conducted in a 5% carbon dioxide gas incubator at 37° C. for 2 hours. Thereafter, the cell concentration was adjusted to 1 x 10^6 cells/ml and 100 μl of each aliquot was reacted with 10 μl of the fluorescein-labeled FH-6 solution, followed by flow cytometry.

Assay [4] has as its system Reverse transcriptase. Nature of the assay: Antiretrovirus activity test: reverse transcriptase activity of virus from culture supernatant. Format: cell-based, HIV. The conditions noted are these: for Reverse transcriptase activity (cpm): control 1316. How it is done: as §1, §2, §3
The cell suspension in each well was then centrifuged (1500 rpm×5 min) and 750 μl of culture supernatant was obtained.
The culture supernatant, 750 μ, obtained above was placed in an Eppendorf tube (1.8 ml) and 4 M NaCl and PEG-6000 (Sigma) were added. The mixture was allowed to react at 0° C. for 2 hours to precipitate the virus and the virus was harvested by centrifugation (15000 rpm×20 min). To this virus pellet were added solution 1 [50% glycerol (Wako Pure Chemical), 25 mM Tris-HCl (pH 7.5), 50 mM KCl 0.025% Triton X-100 (Sigma) and 5 mM DTT (Sigma)] and solution II [0.9% Triton X-100 (Sigma) and 1.5M KCl] for lysis at 0° C. for 30 min. To the resultant 10-μl virus solution were added 5 mg/ml bovine serum albumin (BSA, Sigma), 1 M Tris-HCl, 100 mM DTT (Sigma), 1M KCl, 10 mM Poly A (Sigma), 0.15 mM TTP (Sigma), 200 mM MgCl2, 0.15 mM Oligo(dT) (NEN) and [^3 H]-TTP (NEN) and the mixture was allowed to react at 37° C. for 1 hour. The reaction was then stopped by placing the mixture in ice and the whole amount was spotted on a membrane filter (DE-81 Filter, Whatman) and dried. After drying, the filter was washed three times with 0.5 M Na2 HPO4 and rinsed in ethanol and dried. The radioactivity of [^3 H]-TTP taken into DNA on the membrane was counted with a liquid scintillation counter to determine reverse transcriptase activity (unit, cpm).

Where “and” joins values, the source holds several entries; their conditions need not be identical. Equal values may be shown once.

With `COc1ccc(C(=O)N2CCN(c3ccc4c(c3)CCC(=O)N4)CC2)cc1OC` [Compound 1, 6-[4-(3,4-Dimethoxybenzoyl)-1-piperazinyl]-3,4-dihydrocarbostyril], the “No. of colonies in lungs, Mean” value is on record as 10.0 colonies in assay [1] (3 μg/ml, *P < 0.05) and 34.7 colonies in assay [1] (10 μg/ml). Moreover, in assay [1] (3 or 10 μg/ml), the “Inhibition of pulmonary metastasis (in words)” value is “evident inhibition of pulmonary metastasis”. For the same compound, the “No. of colonies in lungs, individual mice” value in assay [1] (cells pre-incubated with 3 μg/ml) is 14 colonies and 7 colonies and 11 colonies and 6 colonies and 8 colonies and 24 colonies and 0 colonies; in assay [1] (cells pre-incubated with 10 μg/ml), 17 colonies and 43 colonies (2×) and 65 colonies and 7 colonies and 46 colonies and 22 colonies. Besides, in assay [2], the “Inhibition of HIV-infected cell growth (in words)” value was “inhibits cell growth”. Besides, the “Number of HIV-infected cells” value in assay [2] (1 μg/ml) is 100 ×10^4; in assay [2] (10 μg/ml) it was 88 ×10^4; in assay [2] (30 μg/ml) it was 78 ×10^4; in assay [2] (100 μg/ml), 85 ×10^4. Also, the “Sialic acid on HL-60 cell surface” value in assay [3] (1.0 or 10 μg/ml) is reported as “loss of sialic acid from the HL-60 cell surface”. The “Positive rate (%), FH-6” value stood at 82% in assay [3] (1.0 μg/ml) and 76% in assay [3] (10 μg/ml). Besides, the “Reverse transcriptase activity (cpm)” value in assay [4] (1 μg/ml) was 1423 cpm; in assay [4] (10 μg/ml), 1494 cpm; in assay [4] (30 μg/ml) it was 372 cpm; in assay [4] (100 μg/ml), 898 cpm. Also, in assay [4] (30 μg/ml and 100 μg/ml), the “Inhibition of reverse transcriptase activity (in words)” value is recorded as “inhibits reverse transcriptase activity remarkably”.

The values above are taken from patent US5672603A, “Apoptosis regulating composition” (Otsuka Pharmaceutical Co., Ltd., priority 1991, dated 1997).
